We go through two compounds from PMC12333940, “A prometabolite strategy inhibits cardiometabolic disease in an ApoE^–/– murine model of atherosclerosis” (JCI Insight, 2025).

Several values for one entry are separate records, joined by “and”; a condition that tells them apart may be missing. Equal values may be shown once.

Data set [1] in a line: LC-MS/MS of free butyrate in solution of fresh and aged SerBut. The method, then:
To investigate stability, we repeated the experiment with SerBut in FBS-supplemented complete media stored for 1 month at 37°C (Figure 1B).
(B) LC-MS/MS analysis of free butyrate in solution of aged SerBut (incubated at 37°C in FBS-supplemented media for 1 month) and freshly dissolved SerBut and NaBut. (C) NF-κB activity of RAW Blue reporter cells upon treatment with the indicated concentrations of SerBut or NaBut for 24 hours followed by stimulation with 200 ng/mL LPS for 6 hours. (D–J) RAW 264.7 cells treated for 24 hours with the indicated concentrations of SerBut or NaBut followed by stimulation with 200 ng/mL LPS for 6 hours. (D–E) Mean fluorescence intensity (MFI) of iNOS^+ or CD80^+ RAW 264.7 cells analyzed by flow cytometry. (F–J) Cytokine concentrations in the cell culture supernatant of RAW 264.7 cells. “x” indicates untreated group. In A, n = 3 per group representing technical replicates. In B, n = 3 freshly prepared samples per 2 distinct experiments pooled for aged SerBut and NaBut groups, while fresh the SerBut group represents a single experiment. One sample in the aged SerBut group and 2 samples in the NaBut group were lost due to filtering malfunctions or LC-MS/MS autosampling malfunctions. In C, n = 6 technical replicates. Data represent mean ± SEM. […] In A, 2-way ANOVA was performed.
Samples were prepared and derivatized as described previously ([28]). Stock solutions were prepared in water/acetonitrile (ACN) (1:1 v/v): 3-nitrophenylhydrazine (NPH), and 1-ethyl-3-(3-dimethylaminopropyl)carbodiimide (EDC) (in 1% pyridine). The internal standard, 4-methylvaleric acid, was added. Samples were mixed with NPH and EDC stocks at a 1:1:1 volume ratio. The mixture was heated in a heating block at 60°C for 30 minutes. Samples were filtered through 0.22 μm filters and stored at 4°C before analysis.
Both derivatized butyrate-NPH and 4-methylvaleric-NPH were detected in negative mode. Column: Thermo Fisher Scientific C18 4.6 × 50 mm, 1.8 μm particle size, at room temperature. Mobile phase A: water with 0.1% v/v formic acid. Mobile phase B: ACN with 0.1% v/v formic acid. Injection volume: 5.0 μL. Flow rate: 0.5 mL/min. […] The MS conditions were optimized using pure butyrate-NPH or 4-methylvaleric-NPH at 1 mM. […] The ratio between MRM of butyrate and 4-methylvaleric acid was used to quantify butyrate concentration.

Data set [2] relates to RAW 264.7 macrophages. Description: LEGENDPlex cytokines in supernatant of LPS-stimulated RAW 264.7. In kind it is cell-based. Also on record: TNFa (Legendplex) / MCP-1 (Legendplex) / IL-10 (Legendplex) / IL-6 (Legendplex): unit not given here. Conditions: for IL-10: compared with LPS-stimulated controls. The method, then:
RAW 264.7 (ATCC, TIB-71) macrophages were cultured at 37°C and 5% CO2 in DMEM (Gibco) supplemented with 1 mM HEPES, 1 mM sodium pyruvate, 10% FBS, and penicillin/streptomycin. Cells were plated in round-bottom 96-well plates at 100,000 cells per well and incubated with different concentrations of either NaBut or SerBut (0.15–12 mM) for 24 hours. Cells were then rinsed with PBS and then stimulated with 200 ng/mL LPS in media for 6 hours. The cell culture supernatant was collected and analyzed by LEGENDPlex to analyze the concentrations of cytokines (BioLegend). Cell phenotype was analyzed using flow cytometry (Cytek Aurora).

In data set [3] the test system is LDL-R. Briefly: Western blot of LDL-R in liver. It counts as in vivo, mouse. Conditions: for LDL-R protein levels in liver: 6 weeks; for LDL-R Relative Expression: western Blot quantifiation, individual mice. An excerpt: (§1) SerBut water was pH adjusted using 10 M NaOH to a final pH of 7.4. […] After 6 weeks, mice were euthanized. […] The liver was harvested and part was homogenized in tissue protein extraction reagent buffer (Invitrogen, 78510) supplemented with protease inhibitor mini tablets (Thermo Fisher Scientific, PIA32955) for Western blotting and qPCR.
Background: In western blotting, separated proteins are transferred to a membrane and probed.

For data set [4], the system named is ApoE^–/– mice on an HFD. Description: Inflammatory cytokines in plasma (LEGENDPlex). It counts as in vivo, mouse. On the set-up: Plasma LegendPlex IFNy / Plasma LegendPlex IL-1B / Plasma LegendPlex IL-6: unit not given here. Conditions: for plasma IL-1β / IL-6 and IFN-γ in plasma: 6 weeks; for IL-6 and IFN-γ in plasma: compared with control groups; for Plasma LegendPlex IFNy / Plasma LegendPlex IL-1B / Plasma LegendPlex IL-6: individual mice. The method, then: SerBut water was pH adjusted using 10 M NaOH to a final pH of 7.4. […] After 6 weeks, mice were euthanized. […] The liver was harvested and part was homogenized in tissue protein extraction reagent buffer (Invitrogen, 78510) supplemented with protease inhibitor mini tablets (Thermo Fisher Scientific, PIA32955) for Western blotting and qPCR. […] Blood chemical analysis was performed on an Alfa […] Chemistry Analyzer. Reagent kits from Alfa Wasserman were used according to manufacturer's instructions to analyze plasma: lipase (catalog SA1045), HDL-C (catalog SA2038, LDL-C (catalog SA1040), AST (catalog SA1053), ALT (catalog SA1052). A LEGENDPlex was utilized to analyze the concentrations of inflammatory cytokines (BioLegend).

The nature of data set [5]: Biodistribution of free butyrate in intestinal tissue and contents, C57BL/6 mice. In kind it is in vivo. An excerpt:
NaBut is limited in its translation by butyrate’s rapid consumption by colonocytes as a primary energy source in the distal gut. We propose that the enhanced biodistribution of free, active butyrate (following cleavage from serine) in SerBut-treated mice is due to small intestinal escape from the gut via amino acid transporters. To probe this hypothesis, we repeated the experiment and analyzed the biodistribution of free active butyrate in distinct sections of the intestinal tissue and the intestinal contents (Figure 2, K and L, and Supplemental Figure 2). Because neither ApoE^–/– nor HFD feeding would be expected to change amino acid receptor expression or function in the intestine, this was performed in C57BL/6 mice on a normal diet. […] We saw no increase in butyrate in the colon tissue (Figure 2P).
Samples were prepared and derivatized as described previously ([28]). […] The internal standard, 4-methylvaleric acid, was added.
Injection volume: 5.0 μL. Flow rate: 0.5 mL/min.

Data set [6] concerns HDAC. Also on record: method as in PMID 38561491. Conditions: RAW 264.7 ref 28; cited from earlier work.
The nature of data set [7]: Body weight during treatment. The conditions noted are these: in g (unit assumed). It counts as in vivo, ApoE^–/– mice.
From the text: as §1

Setting [8] is: C57BL/6, normal chow, 3 hr after single gavage.

Regarding `CCCC(=O)[O-].[Na+]` [NaBut, sodium butyrate, reference compound], in data set [1] (freshly dissolved), the “Butyrate Release by LCMS-MS (free butyrate)” value was 2.185 and 1.975 and 1.35 and 1.426. Further, in data set [2] (0.15 mM 24 h, then LPS 6 h), the “IL-10 (Legendplex)” value is 8.317 and 9.29 and 13.129 and 8.37; the “MCP-1 (Legendplex)” value is 1660.24 and 2264.24 and 1687.05 and 2929.5 and 2357.33 and 2465.59; the “TNFa (Legendplex)” value is 3467.9 and 2909.16 and 2378.78 and 3607.94 and 2472.11 and 3683.23. For the same compound, in data set [2] (0.45 mM 24 h, then LPS 6 h), the “MCP-1 (Legendplex)” value is 2112.3 and 1670.81 and 2406.34 and 3206.1 and 2298.22 and 2148.28; the “TNFa (Legendplex)” value was 3244.2 and 3100.16 and 2160.11 and 2490.85 and 3404.75 and 4226.6. Besides, in data set [2] (1.3 mM 24 h, then LPS 6 h), the “IL-6 (Legendplex)” value was 176.681 and 160.514 and 142.105 and 263.619 and 136.873 and 198.799; the “IL-10 (Legendplex)” value was 98.389 and 140.989 and 108.157 and 179.138 and 132.561 and 143.069; the “MCP-1 (Legendplex)” value was 906.304 and 776.372 and 770.115 and 1009 and 667.135 and 799.178; the “TNFa (Legendplex)” value was 1902.56 and 1870.65 and 1906.93 and 1713.88 and 1376.2 and 1809.49. In addition, the “IL-10” value in data set [2] is on record as “significantly increased”. In addition, in data set [3], the “LDL-R protein levels in liver” value is given as “significantly suppressed”; the “LDL-R Relative Expression” value was 0.9947 and 1.813 and 1.671 and 2.327 and 1.487 and 1.248 and 0.7546 and 0.5275 and 1.539 and 2.451. Further, in data set [4], the “plasma IL-1β” value is on record as “trend toward reduction”; the “IL-6 and IFN-γ in plasma” value is “did not”; the “Plasma LegendPlex IFNy” value is 43.19 and 71.91 and 156.97 and 1.54 and 133.26 and 33.33 and 25.52 and 29.92 and 11.45; the “Plasma LegendPlex IL-1B” value was 1.73 and 1.26 and 132.12 and 0.34 and 3.85 and 0.46 and 0.64. Further, the “Plasma LegendPlex IL-6” value in data set [4] was 1.6 and 2.29 and 7.3 and 0.92 and 0.99 and 1.54. Also, in data set [5] (setting [8]), the “free butyrate, Colon Contents” value was 384.57 µg/g; the “free butyrate, Lower SI Contents” value is 41.6523 µg/g and 45.1024 µg/g and 60.4329 µg/g and 68.0864 µg/g.
As to `CCCC(=O)OC[C@H](N)C(=O)O` [SerBut, O-butyryl-L-serine], the “relative concentration of free butyrate on storage” value in data set [1] (FBS-supplemented complete media, 1 month at 37°C) is recorded as “did not change”. Further, the “Butyrate Release by LCMS-MS (free butyrate)” value in data set [1] (aged: 37°C in FBS-supplemented media for 1 month, listed as Aged SerBut) was 0.457 and 0.4771 and 0.4543 and 0.3155 and 0.3079; in data set [1] (freshly dissolved) it was 0.483 and 0.4832 and 0.4596. In data set [1] (at the time of measurement), the “share of sample that was free butyrate” value is reported as “approximately 10%”. Also, the “HDAC inhibition activity” value in data set [6] was “maintained attenuated HDAC inhibition activity”. Further, the “TNFa (Legendplex)” value was 4133.05 and 4500 and 3675.16 and 3268.68 and 3195.27 and 3191.26 in data set [2] (1.3 mM 24 h, then LPS 6 h); 3513.15 and 3456.91 and 3852.76 and 3385.25 and 3103.2 and 3863.3 in data set [2] (4 mM 24 h, then LPS 6 h); 1963.6 and 2002.31 and 2185.35 and 1388.16 and 2487.75 and 2408.88 in data set [2] (12 mM 24 h, then 200 ng/mL LPS 6 h). Besides, in data set [2] (12 mM, as effectively as 1.3 mM NaBut), the “production of IL-6, MCP-1 and GM-CSF” value is “suppressed NF-κB–regulated production of proinflammatory cytokines”. In addition, the “IL-10” value in data set [2] is listed as “trending increase”. In addition, the “LDL-R protein levels in liver” value in data set [3] is given as “significantly suppressed”. Further, the “LDL-R Relative Expression” value in data set [3] is 1.543 and 1.468 and 1.422 and 1.743 and 2.24 and 1.846 and 1.092 and 1.104 and 0.9748. The Weight in data set [7] (week 0, 150 mM in drinking water with HFD, individual mice) is 18.7 and 18.3 and 20 and 18.8 and 17 and 19.2 and 18.6 and 18.9 and 20.5 and 19.6; in data set [7] (week 2), 20.9 and 20.5 and 20.2 and 18.7 and 20 and 20.6 and 20.3 and 21.2; in data set [7] (week 2.5) it was 21.2 and 20.6 and 21.6 and 19.8 and 21.4 and 21.5 and 20.7 and 21.9; in data set [7] (week 5) it was 24 and 22.2 and 21.8 and 20.2 and 21.1 and 22.4 and 21.4 and 22.7; in data set [7] (week 6), 23.8 and 21.9 and 22.9 and 19.2 and 21.6 and 22.7 and 21.4 and 23.1. Moreover, the “plasma IL-1β” value in data set [4] was “trend toward reduction”. The “IL-6 and IFN-γ in plasma” value in data set [4] is reported as “reduced”. For the same compound, in data set [4], the “Plasma LegendPlex IFNy” value is 1.54 and 21.65 and 44.82 and 28.44 and 36.42. Moreover, in data set [4], the “Plasma LegendPlex IL-1B” value is 1.73 and 1.26 and 21.47 and 0.83 and 1.61 and 1.04 and 1.97 and 2.89 and 4.7. In addition, in data set [4], the “Plasma LegendPlex IL-6” value is 1.18 and 0.95 and 0.92 and 0.99 and 2.99. For the same compound, the “free butyrate, Lower SI Contents” value in data set [5] (setting [8]) was 61.2227 µg/g and 52.7128 µg/g and 33.2508 µg/g and 35.0221 µg/g. In addition, the “butyrate in the colon tissue” value in data set [5] (C57BL/6, normal diet) was “no increase”. In data set [5] (C57BL/6, normal diet), the “free butyrate in the intestinal contents” value is “no significant changes”. Also, in data set [5] (compared with both PBS- and NaBut-treated mice), the “free butyrate in upper and lower small intestine and ileum tissue” value is “significantly more free, active butyrate”.
